The numbers were not newly measured in PMC8278929 (Chemical Science, 2021), which cites them from elsewhere.

For data set [1] the following is noted: free, uncoordinated alcohol, no reference given.
The conditions of data set [2]: analogue of 11.
The conditions of data set [3]: in PBS, Os/pyr/for 1:200:400.

With `OCCCc1ccccc1` [3-phenyl-1-propanol], in data set [1], the “estimated pKa” value is given as “ca. 16”. [Os(η^6-C6H5C6H5)(4-Me-pico)Cl]^+: the “ΔS^‡ (entropy of hydrolysis)” value in data set [2] is given as −55.6 ± 1.6 J K^−1 mol^−1.

Turning to [Os(η^6-p-cymene)(TsDPEN)], the TOFmax in data set [3] is 1.5 h⁻¹.
